This passage reports EC50 results from patent US10351546B2, “Pyridin-3-yl acetic acid derivatives as inhibitors of human immunodeficiency virus replication” (priority 2015, dated 2019).

The structures appear in SMILES notation.

One experiment relates to NL-RLuc virus. Briefly: Inhibition of HIV replication (NL-RLuc luciferase reporter virus in MT-2 cells). It is filed as cell-based. Particulars: Human immunodeficiency virus 1, MT2, 120 h, read-out: Activity. A digest of the protocol: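 The read-out is Renilla luciferase expressed by replication-competent NL-RLuc (nef partly replaced), measured 5 days after infection of MT-2 cells grown with compound dilutions in 10% FBS RPMI. Median effect equation gives EC50 from ≥2 runs; A ≤100 nM, B 100 nM–1 uM, C >1 uM.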
Background: Reporter assays use an easily measured gene product as a stand-in for the process of interest.
Take `Cc1cccc(Cl)c1CN1CCc2cc(-c3c(N)nc(C)c([C@H](OC(C)(C)C)C(=O)O)c3N3CCC(C)(C)CC3)ccc2C1` [Example 164, (S)-2-(6-Amino-5-(2-(2-chloro-6-methylbenzyl)-1,2,3,4-tetrahydroisoquinolin-6-yl)-4-(4,4-dimethylpiperidin-1-yl)-2-methylpyridin-3-yl)-2-(tert-butoxy)acetic acid]: the EC50 was below 0.1 µM.

Turning to `Cc1cc(F)ccc1CN1CCc2cc(-c3c(CN4CCSCC4)nc(C)c([C@H](OC(C)(C)C)C(=O)O)c3N3CCC(C)(C)CC3)ccc2C1` [Example 122, (S)-2-(tert-Butoxy)-2-(4-(4,4-dimethylpiperidin-1-yl)-5-(2-(4-fluoro-2-methylbenzyl)-1,2,3,4-tetrahydroisoquinolin-6-yl)-2-methyl-6-(thiomorpholinomethyl)pyridin-3-yl)acetic acid], the EC50 is below 0.1 µM.

As to `CCN(CC)CCOCc1nc(C)c([C@H](OC(C)(C)C)C(=O)O)c(N2CCC(C)(C)CC2)c1-c1ccc(OCCc2ccc(F)cc2)cc1` [Example 23, (S)-2-(tert-Butoxy)-2-(6-((2-(diethylamino)ethoxy)methyl)-4-(4,4-dimethylpiperidin-1-yl)-5-(4-(4-fluorophenethoxy)phenyl)-2-methylpyridin-3-yl)acetic acid], the EC50 was below 0.1 µM.

Consider `Cc1nc(COC2CCCC2)c(-c2ccc(OCCc3ccc(F)cc3)cc2)c(N2CCC(C)(C)CC2)c1[C@H](OC(C)(C)C)C(=O)O` [Example 11, (S)-2-(tert-Butoxy)-2-(6-((cyclopentyloxy)methyl)-4-(4,4-dimethylpiperidin-1-yl)-5-(4-(4-fluorophenethoxy)phenyl)-2-methylpyridin-3-yl)acetic acid], for which the EC50 was below 0.1 µM.

As for `Cc1nc(N)c(-c2ccc(OCCc3ccc(F)cc3)cc2)c(N2CCC(C)(C)CC2)c1[C@H](OC(C)(C)C)C(=O)O` [Example 46, (S)-2-(6-Amino-4-(4,4-dimethylpiperidin-1-yl)-5-(4-(4-fluorophenethoxy)phenyl)-2-methylpyridin-3-yl)-2-(tert-butoxy)acetic acid], the EC50 is below 0.1 µM.

As for `Cc1nc(COCCN2CCCCC2)c(-c2ccc(OCCc3ccc(F)cc3)cc2)c(N2CCC(C)(C)CC2)c1[C@H](OC(C)(C)C)C(=O)O` [Example 27, (S)-2-(tert-Butoxy)-2-(4-(4,4-dimethylpiperidin-1-yl)-5-(4-(4-fluorophenethoxy)phenyl)-2-methyl-6-((2-(piperidin-1-yl)ethoxy)methyl)pyridin-3-yl)acetic acid], the EC50 is below 0.1 µM.

Consider `Cc1nc(CN2CCCCC2)c(-c2ccc(OCCc3ccc(F)cc3)cc2)c(N2CCC(C)(C)CC2)c1[C@H](OC(C)(C)C)C(=O)O` [Example 80, (S)-2-(tert-Butoxy)-2-(4-(4,4-dimethylpiperidin-1-yl)-5-(4-(4-fluorophenethoxy)phenyl)-2-methyl-6-(piperidin-1-ylmethyl)pyridin-3-yl)acetic acid], for which the EC50 was below 0.1 µM.

Regarding `CNC(=O)c1nc(C)c([C@H](OC(C)(C)C)C(=O)O)c(N2CCC(C)(C)CC2)c1-c1ccc(OCCc2ccc(F)cc2)cc1` [Example 40, (S)-2-(tert-Butoxy)-2-(4-(4,4-dimethylpiperidin-1-yl)-5-(4-(4-fluorophenethoxy)phenyl)-2-methyl-6-(methylcarbamoyl)pyridin-3-yl)acetic acid], the EC50 was below 0.1 µM.

In the case of `Cc1nc(CN2CCS(=O)(=O)CC2)c(-c2ccc(OCCc3ccc(F)cc3)cc2)c(N2CCC(C)(C)CC2)c1[C@H](OC(C)(C)C)C(=O)O` [Example 83, (S)-2-(tert-Butoxy)-2-(4-(4,4-dimethylpiperidin-1-yl)-6-((1,1-dioxidothiomorpholino)methyl)-5-(4-(4-fluorophenethoxy)phenyl)-2-methylpyridin-3-yl)acetic acid], the EC50 was below 0.1 µM.

Regarding `Cc1nc(O)c(-c2ccc(OCCc3ccc(F)cc3)cc2)c(N2CCC(C)(C)CC2)c1[C@H](OC(C)(C)C)C(=O)O` (single isomer, unassigned) [Example 50], the EC50 was below 0.1 µM.

On to `Cc1nc(CNC23CC(C2)C3)c(-c2ccc(OCCc3ccc(F)cc3)cc2)c(N2CCC(C)(C)CC2)c1[C@H](OC(C)(C)C)C(=O)O` [Example 174, (S)-2-(6-((Bicyclo[1.1.1]pentan-1-ylamino)methyl)-4-(4,4-dimethylpiperidin-1-yl)-5-(4-(4-fluorophenethoxy)phenyl)-2-methylpyridin-3-yl)-2-(tert-butoxy)acetic acid], for which the EC50 is below 0.1 µM.

Take `Cc1nc(COCC2CNC2)c(-c2ccc(OCCc3ccc(F)cc3)cc2)c(N2CCC(C)(C)CC2)c1[C@H](OC(C)(C)C)C(=O)O` [Example 22, (S)-2-(6-((Azetidin-3-ylmethoxy)methyl)-4-(4,4-dimethylpiperidin-1-yl)-5-(4-(4-fluorophenethoxy)phenyl)-2-methylpyridin-3-yl)-2-(tert-butoxy)acetic acid]: the EC50 is below 0.1 µM.

In the case of `Cc1ncc(Br)c(N2CCC(C)(C)CC2)c1[C@H](OC(C)(C)C)C(=O)O` [Example 62, (S)-2-(5-Bromo-4-(4,4-dimethylpiperidin-1-yl)-2-methylpyridin-3-yl)-2-(tert-butoxy)acetic acid], the EC50 is below 0.1 µM.

For `Cc1nc(CNC(=O)C(=O)N(C)C)c(-c2ccc(OCCc3ccc(F)cc3)cc2)c(N2CCC(C)(C)CC2)c1[C@H](OC(C)(C)C)C(=O)O` [Example 105, (S)-2-(tert-Butoxy)-2-(6-((2-(dimethylamino)-2-oxoacetamido)methyl)-4-(4,4-dimethylpiperidin-1-yl)-5-(4-(4-fluorophenethoxy)phenyl)-2-methylpyridin-3-yl)acetic acid], the EC50 was below 0.1 µM.

On to `COc1ccccc1NCc1nc(C)c([C@H](OC(C)(C)C)C(=O)O)c(N2CCC(C)(C)CC2)c1-c1ccc(OCCc2ccc(F)cc2)cc1` [Example 91, (S)-2-(tert-Butoxy)-2-(4-(4,4-dimethylpiperidin-1-yl)-5-(4-(4-fluorophenethoxy)phenyl)-6-(((2-methoxyphenyl)amino)methyl)-2-methylpyridin-3-yl)acetic acid], for which the EC50 is below 0.1 µM.

With `Cc1cc(F)ccc1CN1CCc2cc(-c3c(C(C)N(C)CC4CCOCC4)nc(C)c([C@H](OC(C)(C)C)C(=O)O)c3N3CCC(C)(C)CC3)ccc2C1` (single isomer, unassigned) [Example 150], the EC50 was below 0.1 µM.

For `Cc1nc(CS(C)(=O)=O)c(-c2ccc(OCCc3ccc(F)cc3)cc2)c(N2CCC(C)(C)CC2)c1[C@H](OC(C)(C)C)C(=O)O` [Example 18, (S)-2-(tert-Butoxy)-2-(4-(4,4-dimethylpiperidin-1-yl)-5-(4-(4-fluorophenethoxy)phenyl)-2-methyl-6-((methylsulfonyl)methyl)pyridin-3-yl)acetic acid], the EC50 is below 0.1 µM.

Consider `Cc1nc(COCCN2CCOCC2)c(-c2ccc(OCCc3ccc(F)cc3)cc2)c(N2CCC(C)(C)CC2)c1[C@H](OC(C)(C)C)C(=O)O` [Example 24, (S)-2-(tert-Butoxy)-2-(4-(4,4-dimethylpiperidin-1-yl)-5-(4-(4-fluorophenethoxy)phenyl)-2-methyl-6-((2-morpholinoethoxy)methyl)pyridin-3-yl)acetic acid], for which the EC50 was below 0.1 µM.

Take `Cc1nc(COCc2ncco2)c(-c2ccc(OCCc3ccc(F)cc3)cc2)c(N2CCC(C)(C)CC2)c1[C@H](OC(C)(C)C)C(=O)O` [Example 14, (S)-2-(tert-Butoxy)-2-(4-(4,4-dimethylpiperidin-1-yl)-5-(4-(4-fluorophenethoxy)phenyl)-2-methyl-6-((oxazol-2-ylmethoxy)methyl)pyridin-3-yl)acetic acid]: the EC50 is below 0.1 µM.

As for `Cc1nc(CNCc2cocn2)c(-c2ccc(OCCc3ccc(F)cc3)cc2)c(N2CCC(C)(C)CC2)c1[C@H](OC(C)(C)C)C(=O)O` [Example 78, (S)-2-(tert-Butoxy)-2-(4-(4,4-dimethylpiperidin-1-yl)-5-(4-(4-fluorophenethoxy)phenyl)-2-methyl-6-(((oxazol-4-ylmethyl)amino)methyl)pyridin-3-yl)acetic acid], the EC50 is below 0.1 µM.

Regarding `Cc1nc(CNC2COC2)c(-c2ccc(OCCc3ccc(F)cc3)cc2)c(N2CCC(C)(C)CC2)c1[C@H](OC(C)(C)C)C(=O)O` [Example 77, (S)-2-(tert-Butoxy)-2-(4-(4,4-dimethylpiperidin-1-yl)-5-(4-(4-fluorophenethoxy)phenyl)-2-methyl-6-((oxetan-3-ylamino)methyl)pyridin-3-yl)acetic acid], the EC50 is below 0.1 µM.

For the compound `Cc1nc(C(F)F)c(-c2ccc(OCCc3ccc(F)cc3)cc2)c(N2CCC(C)(C)CC2)c1[C@H](OC(C)(C)C)C(=O)O` [Example 4, (S)-2-(tert-Butoxy)-2-(6-(difluoromethyl)-4-(4,4-dimethylpiperidin-1-yl)-5-(4-(4-fluorophenethoxy)phenyl)-2-methylpyridin-3-yl)acetic acid], the EC50 is below 0.1 µM.

In the case of `CSCc1nc(C)c([C@H](OC(C)(C)C)C(=O)O)c(N2CCC(C)(C)CC2)c1-c1ccc(OCCc2ccc(F)cc2)cc1` [Example 17, (S)-2-(tert-Butoxy)-2-(4-(4,4-dimethylpiperidin-1-yl)-5-(4-(4-fluorophenethoxy)phenyl)-2-methyl-6-((methylthio)methyl)pyridin-3-yl)acetic acid], the EC50 is below 0.1 µM.

Take `Cc1nc(COCC2CCC2)c(-c2ccc(OCCc3ccc(F)cc3)cc2)c(N2CCC(C)(C)CC2)c1[C@H](OC(C)(C)C)C(=O)O` [Example 29, (S)-2-(tert-Butoxy)-2-(6-((cyclobutylmethoxy)methyl)-4-(4,4-dimethylpiperidin-1-yl)-5-(4-(4-fluorophenethoxy)phenyl)-2-methylpyridin-3-yl)acetic acid]: the EC50 was below 0.1 µM.

`CC(=O)Nc1nc(C)c([C@H](OC(C)(C)C)C(=O)O)c(N2CCC(C)(C)CC2)c1-c1ccc(OCCc2ccc(F)cc2)cc1` [Example 47, (S)-2-(6-Acetamido-4-(4,4-dimethylpiperidin-1-yl)-5-(4-(4-fluorophenethoxy)phenyl)-2-methylpyridin-3-yl)-2-(tert-butoxy)acetic acid]: the EC50 was below 0.1 µM.

The experiment is the same for the next values; noted with them: Human immunodeficiency virus 1, MT2, 120 h, read-out: EC50 μM.
Regarding `COc1ccccc1NCc1nc(C)c([C@H](OC(C)(C)C)C(=O)O)c(N2CCC(C)(C)CC2)c1-c1ccc(OCCc2ccc(F)cc2)cc1` [Example 91, (S)-2-(tert-Butoxy)-2-(4-(4,4-dimethylpiperidin-1-yl)-5-(4-(4-fluorophenethoxy)phenyl)-6-(((2-methoxyphenyl)amino)methyl)-2-methylpyridin-3-yl)acetic acid], the EC50 was 0.018 µM.

With `Cc1nc(COCCN2CCOCC2)c(-c2ccc(OCCc3ccc(F)cc3)cc2)c(N2CCC(C)(C)CC2)c1[C@H](OC(C)(C)C)C(=O)O` [Example 24, (S)-2-(tert-Butoxy)-2-(4-(4,4-dimethylpiperidin-1-yl)-5-(4-(4-fluorophenethoxy)phenyl)-2-methyl-6-((2-morpholinoethoxy)methyl)pyridin-3-yl)acetic acid], the EC50 came to 0.001 µM.

Consider `Cc1nc(CNC2COC2)c(-c2ccc(OCCc3ccc(F)cc3)cc2)c(N2CCC(C)(C)CC2)c1[C@H](OC(C)(C)C)C(=O)O` [Example 77, (S)-2-(tert-Butoxy)-2-(4-(4,4-dimethylpiperidin-1-yl)-5-(4-(4-fluorophenethoxy)phenyl)-2-methyl-6-((oxetan-3-ylamino)methyl)pyridin-3-yl)acetic acid], for which the EC50 came out at 0.067 µM.
